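1) Cells in 96-well plates. 2) Compound, 48 h, 5 concentrations. 3) Linear interpolation between surrounding doses. 4) Unreached endpoint = highest concentration. Here, GI50 denotes the concentration required for 50% inhibition of growth. TGI denotes the concentration required for complete inhibition of growth.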
How the values were obtained:
Experiment in all cases: inhibition of tumour cell growth, NCI panel, 48 h
[1] = system: KM12 colon
[2] = system: K-562 leukemia
[3] = system: HOP-92 NSCLC
[4] = system: CCRF-CEM leukemia
[5] = system: UACC-257 melanoma
[6] = system: NCI-H460 lung
[7] = system: DU-145 prostate
[8] = system: NCI-H522 lung
[9] = system: HT29 colon
[10] = system: RPMI-8226 leukemia

Row | Compound | GI50 [1] [µM] | TGI [1] [µM] | GI50 [2] [µM] | TGI [2] [µM] | GI50 [3] [µM] | TGI [3] [µM] | GI50 [4] [µM] | TGI [4] [µM] | GI50 [5] [µM] | TGI [5] [µM] | GI50 [6] [µM] | TGI [6] [µM] | GI50 [7] [µM] | TGI [7] [µM] | GI50 [8] [µM] | TGI [8] [µM] | GI50 [9] [µM] | TGI [9] [µM] | GI50 [10] [µM] | TGI [10] [µM]
1 | O=C(Nc1ccc(-n2cc(-c3ccncc3)c(-c3ccc(Cl)c(O)c3)n2)cc1)Nc1ccc(Cl)c(C(F)(F)F)c1 | 1.47 | 3.01 | 1.89 | 7.37 | 1.57 | 4.21 | 1.53 | 8.79 | 1.51 | 3.4 | 1.7 | 3.4 | 1.84 | 3.85 |  |  |  |  |  | 
2 | Oc1cn(-c2ccc(Cl)cc2)nc1-c1n[nH]c(=S)n1C1CCCCC1 | 1.04 | 17.5 | < 0.0427 |  | 38.7 | > 100 | 0.252 | > 100 | 0.873 | > 100 | 0.334 | > 100 | 0.502 | > 33.9 | 0.373 | > 100 | 30.5 | > 100 | 0.248 | 30.9
3 | O=C(Nc1ccc(CO)cc1)c1coc2ccccc2c1=O | > 100 | > 100 | > 100 | > 100 | 29.4 | > 100 | > 100 | > 100 | > 100 | > 100 | > 100 | > 100 | > 100 | > 100 | > 100 | > 100 | > 100 | > 100 | 84.8 | > 100
4 | C=C1C(=O)O[C@H]2/C=C(/C)C3=CC(=O)[C@@](C)(C[C@@H](OC(=O)/C(C)=C\C)C12)O3 (stereo not given in full) |  | 9.5 |  | 1.84 |  | 2.07 |  |  |  | 5.69 |  | 11.8 |  | 8.99 |  | 0.605 |  | 1.21 |  | 
5 | O=C(Nc1ccc(-c2ccccc2)cc1)C1CCN(S(=O)(=O)c2ccccc2Cl)CC1 | 36.7 | > 100 | 71.8 | > 100 | 32.2 | 91.2 | 74.2 | > 100 | 28.1 | > 100 | 40.8 | > 100 | 27.9 | > 100 | 22.4 | > 100 | > 100 | > 100 | 42 | > 100
6 | CCn1c(CO)nn(-c2cc(O[C@@H](C)C(F)(F)F)c(C(=O)Nc3c(F)cccc3Cl)cc2F)c1=O | < 0.01 | > 100 | < 0.01 | > 100 | 17.7 | > 100 | < 0.01 | > 100 |  | > 100 | < 0.01 | > 33.9 | < 0.0192 | > 100 | < 0.01 | > 100 | < 0.01 | > 100 | < 0.01 | > 62.2
7 | C[C@]12CC[C@H](O)C[C@H]1CC[C@@H]1[C@@H]2CC[C@]2(C)[C@@H](C3=CC(=O)OC3)CC[C@]12O |  | 3.27 |  | 1.42 |  | 1.1 |  | 44.4 |  | 2.63 |  | 0.139 | 0.0325 | 0.146 |  | 0.436 |  | 1.6 |  | 0.558
8 | N=C(N)SCc1cccc(-c2nc3ccccc3c(=O)o2)c1 |  | > 100 |  | > 100 |  | > 100 |  |  |  | > 100 |  | > 100 |  | > 100 |  | > 100 |  | > 100 |  | > 100
